Laboratory results taken from patent US20140056898A1, “COMBINATION THERAPIES COMPRISING ANTI-ERBB3 AGENTS” (priority 2011, published 2014).
pIC50: −log10 of the molar value. “Also recorded” adds a separate entry of the source.

What was measured:
[1] = tested on: BT474-M3 cells; experiment: Spheroid in vitro tumor model assay, estrogen-stimulated; format: cell-based; conditions: estrogen-stimulated BT474-M3 spheroids, dose range, six days
From the text: Cells are continued to culture for six days.
Multicellular spheroids are used to simulate the growth and microenvironmental conditions of tumors in vitro.

[2] = tested on: BT474-M3 cells; experiment: Spheroid in vitro tumor model assay, dual ligand (estrogen and heregulin)-stimulated; format: cell-based; conditions: estrogen and heregulin (dual ligand)-stimulated BT474-M3 spheroids, dose range
Description: (§3) BT474-M3 wild type cells (2000 cells/well) are plated in Ultra Low Cluster 96-well plate (Costar). After overnight incubation, indicated treatments are introduced to the plate. Cells are continued to culture for six days. Spheroids are then examined by Nikon microscope and analyzed by MetaMorph Image Analysis Software (Molecular Devices). The spheroid size from cells cultured in medium containing 10% FBS is set as control.
(§4) The percent of spheroid growth inhibition (normalized to untreated, stimulated control) was determined for 1 μM doses of inhibitor treatment.

[3] = tested on: BT474-M3 cells; experiment: Spheroid in vitro tumor model assay, heregulin-stimulated; format: cell-based; conditions: heregulin-stimulated BT474-M3 spheroids, dose range
Description: as §3, §4

[4] = tested on: BT474-M3 cells; experiment: Cell proliferation assay (CellTiter-Glo); format: cell-based; conditions: 24 hours
Description: Cells (8,000/well) are seeded into 96-well plates and incubated overnight. Inhibitor is added at doses indicated and cells are treated for 24 hours. For experiments with ligand stimulation, cells are serum-starved overnight prior to addition of inhibitor and 2 nM heregulin 1-[…] (R&D Systems, Minneapolis, Minn.) is added 1 hour post-inhibitor treatment in media containing 5% FBS. Numbers of viable cells are measured as an indicator of cell proliferation using the CellTiter-Glo® Luminescent Cell Viability Assay (Promega, Madison, Wis.).

[5] = tested on: ErbB3 phosphorylation (pErbB3); experiment: Cell signaling assay, pErbB3 ELISA in heregulin-stimulated BT474-M3 cells; format: cell-based
Description: (§1) Cell lysates are probed for phospho-ErbB3 (pErbB3), and phospho-AKT (pAKT) by ELISA as described previously (Schoeberl et al, 2009). Inhibitor IC50 values are calculated by fitting dose-response data to a 4-parameter sigmoidal curve (GraphPad Prism®, GraphPad Software, Inc., La Jolla, Calif.).
The amount of pErbB3 was measured by ELISA using the methods described above or minor variations thereof. Model-generated dose-response curves overlay the experimental data (FIG. 7a). […] Untreated and heregulin-stimulated cells were probed for pErbB3 and pAKT and the IC50 was calculated (FIG. 7b).
(§2) CRL-1504™), cells were incubated with serial dilutions of either inhibitor for 15 minutes, 1 hour, 4 hours, and 24 hours followed by stimulation with 5 nM heregulin for 10 min. Amounts of pAKT and pErbB3 were measured by ELISA essentially as described.

[6] = tested on: BT474-M3-Aro cells; experiment: Aromatase-overexpressing BT474-M3 cell proliferation assay (WST-1); format: cell-based; conditions: androstenedione (200 nM) and heregulin (2 nM), three days; ratio 10:20:1 MM-111 to letrozole to lapatinib
Description: BT474-M3 cells were transfected with PS100010 vector containing human aromatase (gene accession No: NM_000103.2). Cells with stable expression of aromatase (BT474-M3-Aro) were obtained after selection with 400 μg/ml geneticin. For cell proliferation assay, BT474-M3-Aro cells (5000 cells/well) were plated in phenol red-free RPMI-1640 medium containing 5% charcoal-stripped FBS into 96-well plate. After overnight incubation, indicated treatments were introduced in the presence of androstenedione (A-4; 200 nM) and heregulin (HRG; 2 nM). […] Cell viability in the presence of 5% charcoal-stripped FBS was set as control (100%).
Androstenedione is a steroid hormone that is converted to estrogen by aromatase.

[7] = tested on: BT474-M3 cells; experiment: Apoptosis assay (Annexin V / PI, FACS) in spheroids; format: cell-based; conditions: MM-111 100 nM, lapatinib 33 nM; for Percent cell population: Early apoptosis: Annexin V positive, PI negative; for Percent cell population: Dead cells: PI positive, Annexin V negative
Description: After overnight incubation, spheroids are treated with inhibitor at concentrations indicated for 72 hours. Spheroids are then trypsinized and combined with floating cells. Cells are washed twice with cold PBS and suspended in binding buffer (0.01 M HEPES, pH 7.4; 0.14 M NaCl; 2.5 mM CaCl2). Cells are then stained with FITC-conjugated Annexin V and PI. Apoptotic cells are quantified on a FACSCalibur™ FACS machine.
Cells were then stained with Annexin V and propidium iodide (PI) and quantitated using FACS (FIG. 11, Table 2). Cell populations staining positive with Annexin V and PI were quantified as late apoptotic, cell populations staining positive with Annexin V but not PI were quantified as early apoptotic, cell populations staining positive for PI but not Annexin V were quantified as dead cells and populations of cells not stained with either Annexin V or PI were considered alive and not apoptotic (Table 2).

[8] = tested on: BT474-M3 breast cancer xenograft; experiment: BT474-M3 breast cancer xenograft efficacy study, MM-111 and lapatinib; format: in vivo, mice; conditions: from day 40 to day 7; MM-111 weekly, lapatinib daily at optimal efficacious dose
Description: Tumor xenografts are established by subcutaneous injection of BT474-M3 cells into the flank of 5-6 weeks old female athymic nude mice (nu/nu; Charles River Labs, Wilmington, Mass.). Mice receive a subcutaneous 60 day, slow-release estrogen implant in the opposite flank (0.72 mg pellet; Innovation Research of America, Sarasota, Fla.) 24 hours prior to the injection of cells.
The percent change in tumor volume from day 40 to day 7 (inoculation) was calculated for each group (FIG. 6b).

[9] = tested on: ErbB3 phosphorylation (pErbB3); experiment: Cell signaling assay, pErbB3 ELISA in heregulin-stimulated ZR75-30 cells; format: cell-based; conditions: 5 nM heregulin for 10 min, read-out: IC50, reduction of pErbB3 levels
Description: as §1, §2

[10] = tested on: AKT phosphorylation (pAKT); experiment: Cell signaling assay, pAKT ELISA in heregulin-stimulated ZR75-30 cells; format: cell-based; conditions: 5 nM heregulin for 10 min, read-out: IC50, reduction of pAKT levels
Description: as §1, §2

[11] = tested on: ErbB2 and ErbB3; experiment: Affinity of MM-111 antigen-binding sites
[12] = tested on: AKT phosphorylation (pAKT); experiment: Cell signaling assay, pAKT ELISA in heregulin-stimulated BT474-M3 cells; format: cell-based; conditions: 5 nM heregulin for 10 min, read-out: IC50, reduction of pAKT levels
Description: as §1, §2

Compound | inhibition of spheroid growth (in words) [1] | inhibition of spheroid growth (in words) [2] | inhibition of spheroid growth (in words) [3] | inhibition of cell proliferation (viable cells) ([4]; BT474-M3 cells in serum plus 2 nM heregulin) | inhibition of cell proliferation (viable cells) ([4]; unstimulated BT474-M3 cells in serum) [%] | inhibition of heregulin-activated signaling (pErbB3, pAKT; in words) ([5]; BT474-M3 cells, 5 nM heregulin 10 min versus unstimulated, 1-hour incubation) | inhibition of cell growth (in words) [6] | Percent cell population: Live cells ([7]; 72 hours) [%] | Percent cell population: Early apoptosis ([7]; 72 hours) [%] | Percent cell population: Dead cells ([7]; 72 hours) [%] | total apoptotic cells [7] | percent change in tumor volume [8] [%] | pIC50 [9] | pIC50 [10] | pIC50 ([5]; BT474-M3 cells, 5 nM heregulin for 10 min, read-out: IC50, reduction of pErbB3 levels) | ability to inhibit heregulin-induced ErbB3 activation relative to lapatinib ([5]; incubation 15 minutes up to 24 hours) | Percent cell population: Late apoptosis ([7]; 72 hours, Annexin V and PI positive) [%] | affinity of ErbB2 antigen-binding site relative to ErbB3 antigen-binding site [11] | pIC50 [12]
C[C@]12CC[C@@H]3c4ccc(O)cc4C[C@@H](CCCCCCCCC[S+]([O-])CCCC(F)(F)C(F)(F)F)[C@H]3[C@@H]1CC[C@@H]2O (some centres unmarked) [fulvestrant] | showed inhibitory effects on spheroid growth | inhibited spheroid growth | did not inhibit heregulin stimulated spheroid growth | – | – | – | – | – | – | – | – | – | – | – | – | – | – | – | –
CS(=O)(=O)CCNCc1ccc(-c2ccc3ncnc(Nc4ccc(OCc5cccc(F)c5)c(Cl)c4)c3c2)o1 [lapatinib, reference compound] | – | – | – | about 23% | ~50 | not an effective inhibitor of heregulin-activated signaling | did not result in growth inhibition except at high concentrations | 67.9 | 16.8 | 0.73 | about 31% | −11 | – | – | – | – | – | – | –
N#Cc1ccc(C(c2ccc(C#N)cc2)n2cncn2)cc1 [letrozole] | – | – | – | – | – | – | did not result in significant inhibition of spheroid cell growth | – | – | – | – | – | – | – | – | – | – | – | –
MM-111: bispecific anti-ErbB2/anti-ErbB3 antibody, scFv HSA conjugate, amino acid sequence SEQ ID NO:1 | showed inhibitory effects on spheroid growth | inhibited spheroid growth; also recorded: greater inhibitory effects than trastuzumab | inhibited heregulin-induced spheroid growth | – | – | – | inhibited cell proliferation to a similar extent | 78.9 | 12.9 | 0.74 | about 20% | 14 | 8.30 | 8.40 | 8.52 | superior to lapatinib by greater than an order of magnitude | 7.5 | about 30 times | 8.00
